Measured values as given in PMC10094418, “Butein Inhibits Cell Growth by Blocking the IL-6/IL-6Rα Interaction in Human Ovarian Cancer and by Regulation of the IL-6/STAT3/FoxO3a Pathway” (International Journal of Molecular Sciences, 2023).

Assays:
gp130 = target: T1, gp130 (Homo sapiens, UniProt P40189); experiment: Surface plasmon resonance, immobilized gp130; format: binding; details: SPR, CM5 chip, steady-state KD
T1 construct: purchased Sino Biological or ANRT
T1 sequence (P40189 23-918): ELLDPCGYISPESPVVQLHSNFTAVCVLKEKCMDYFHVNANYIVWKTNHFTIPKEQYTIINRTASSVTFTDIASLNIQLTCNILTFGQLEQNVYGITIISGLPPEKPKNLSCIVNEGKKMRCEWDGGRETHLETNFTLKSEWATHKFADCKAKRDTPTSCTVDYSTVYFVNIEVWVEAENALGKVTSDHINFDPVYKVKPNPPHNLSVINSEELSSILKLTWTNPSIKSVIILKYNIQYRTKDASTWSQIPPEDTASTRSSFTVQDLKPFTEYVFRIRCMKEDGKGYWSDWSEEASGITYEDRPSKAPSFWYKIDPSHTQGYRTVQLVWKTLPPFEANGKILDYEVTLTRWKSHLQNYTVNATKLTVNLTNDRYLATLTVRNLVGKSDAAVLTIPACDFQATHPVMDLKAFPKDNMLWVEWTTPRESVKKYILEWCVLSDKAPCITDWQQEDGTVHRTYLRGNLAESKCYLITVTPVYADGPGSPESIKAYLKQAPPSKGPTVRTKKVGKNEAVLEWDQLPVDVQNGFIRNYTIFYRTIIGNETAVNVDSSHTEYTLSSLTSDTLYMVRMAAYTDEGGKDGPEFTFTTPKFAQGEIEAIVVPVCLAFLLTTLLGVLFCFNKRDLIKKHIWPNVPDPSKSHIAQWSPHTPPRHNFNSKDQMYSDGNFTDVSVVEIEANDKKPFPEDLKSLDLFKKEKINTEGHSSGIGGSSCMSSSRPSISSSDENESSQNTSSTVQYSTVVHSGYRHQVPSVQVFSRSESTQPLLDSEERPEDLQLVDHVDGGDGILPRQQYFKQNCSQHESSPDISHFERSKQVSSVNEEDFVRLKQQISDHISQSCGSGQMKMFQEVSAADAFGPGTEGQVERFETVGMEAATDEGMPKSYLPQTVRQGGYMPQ
Method: The surface plasmon resonance (SPR) assay was measured using the BIAcore T200 model (GE Healthcare, Chicago, IL, USA) with HBS-EP buffer (1×HBS-EP, GE Healthcare, Chicago, IL, USA) containing 5% dimethyl sulfoxide (DMSO; Sigma-Aldrich, St. Louis, MO, USA). The pH scouting for IL-6 (PeproTech, Rocky Hill, NJ, USA), IL-6Rα (PeproTech, Rocky Hill, NJ, USA), and gp130 (Sino Biological, Beijing, China, or ANRT, Daejeon, Korea) immobilization was performed in 10 mM acetate buffer at pH 4.5. IL-6, IL-6Rα, and gp130 were immobilized on a CM5 chip at 750, 1200, and 2000 response units (RU). Butein was injected into the IL-6, IL-6Rα and gp130-immobilized flow cell at concentrations of 10, 20, 30, 40, 50, 60, 70, 80, 90, and 100 μM with a 25 μL/min flow rate for 150 s and allowed to dissociate for 300 s. Steady-state KD was determined via the T-200 BIAevaluation software (GE Healthcare, Chicago, IL, USA).

A2780 cells [1] = experiment: Cell viability by MTT assay, A2780; format: cell-based; details: Homo sapiens, 48 h
Method: A2780 and SKOV3 cell lines were purchased from the European Collection of Cell Cultures (ECACC, London, UK) and Korean Cell Line Bank (KCLB, Seoul, Republic of Korea) respectively. Each cell line was seeded in a 96-well plate at an appropriate cell number (3000 cells/100 μL in each well). After 24 h, butein was added to the plates at each of the following concentrations, 0, 3.125, 6.25, 12.5, 25, and 50 μM, in triplicate in the presence of serum medium. After 48 h, 100 μL of […] (Sigma-Aldrich, St. Louis, MO, USA) solubilizing solution was added to each well and incubated for 4 h. The solution was then aspirated, and 100 μL of DMSO was added for cell lysis. The spectrophotometric absorbance was measured at 540 nm. Half of the maximum inhibitory concentration (IC50) was determined using GraphPad Prism software (version 7.0).

A2780 cells [2] = experiment: Flow cytometric cell cycle analysis (PI), A2780; format: cell-based, human; details: 25 μM; 45.3% under control conditions
Method: A2780 and SKOV3 cell lines were treated with control (siltuximab 10 μM) and butein (5, 10, and 25 μM). After 6 h, the cells were fixed with 70% ethanol for cell cycle analysis and stained with propidium iodide (PI). Cell death was analyzed using the FITC Annexin V Apoptosis Detection kit with 7-AAD (Cat.no. 640922, BioLegend, San Diego, CA, USA). Cells were sorted using a FACS Canto II (BD Biosciences, Franklin Lakes, NJ, USA) and cell cycle and apoptosis were analyzed using BD FACS Diva software version 6. 2. Analysis (BD Biosciences, Franklin Lakes, NJ, USA) was performed in triplicate.

A2780 cells [3] = experiment: Clonogenic formation assay, A2780; format: cell-based, human; details: compared with control siltuximab-treated cells
Method: A2780 and SKOV3 cell lines were seeded at approximately 5000 cells/well in 24-well plates. Butein was added to the cell medium at various concentrations (5, 10, and 25 μM) together with control siltuximab (CTNO328; EUSA Pharma, Inc., Hemel Hempstead, UK) for 12 h. After 2 weeks, the colonies formed were fixed with fixer buffer, stained with crystal violet, and imaged with a ChemiDoc imaging system (Bio-Rad, Herles, CA, USA).

[4] = system: STAT3 phosphorylation in A2780 cells; experiment: Western blotting of STAT3 phosphorylation, A2780; format: cell-based, human; details: relative to IL-6 treated cells
Method: After each drug treatment of the cells, the cells were dissolved in 100 μL of radioimmunoprecipitation assay (RIPA) buffer (Thermo Fisher Scientific Inc., Waltham, MA, USA) and centrifuged to separate the supernatant containing protein. Isolated protein concentrations were measured using the Pierce BCA Protein Assay Kit (Thermo Fisher Scientific Inc., Waltham, MA, USA). Aliquots of proteins quantified at […] were boiled at 100 °C in 5× sample buffer, separated on a 12% SDS-polyacrylamide gel and electrophoresed onto polyvinylidene difluoride (PDVF) membranes (Millipore, Billerica, MA, USA). The PDVF membranes were blocked for 1 h at 25 °C with 5% BSA in 1× tris buffered saline containing 0.05% Tween20 (TBST) (Sigma-Aldrich, St. Louis, MO, USA). The membrane was incubated in the primary antibody at 4 °C overnight. PDVF membranes were washed with 1× TBST and incubated with AffiniPure goat anti-rabbit IgG secondary antibody (Jackson Immunoresearch, West Grove, PA, USA) for 1 h at room temperature. After washing again with TBST buffer, enhanced signals were detected using the SuperSignal™ West Femto Maximum Sensitivity Substrate kit (cat.no. 34094, Thermo Scientific, Rockford, IL, USA). The blot was imaged using the ChemiDoc imaging system (Bio-Rad, Herles, CA, USA), and protein expression was quantified with the ImageJ software (v1.8.0).

Kd (gp130): 616 µM | IC50 (A2780 cells [1]): 64.7 ± 6.27 µM
SMILES: O=C(/C=C/c1ccc(O)c(O)c1)c1ccc(O)cc1O [butein]
A2780 cells in G1-phase (A2780 cells [2]): 55.9% | Clonogenicity, A2780 (A2780 cells [3]): significantly inhibited | Phosphorylation of STAT3, A2780 [4]: inhibited in a concentration-dependent manner
